Measurements published in US10702527B2, “Combination therapy of transcription inhibitors and kinase inhibitors” (Dana-Farber Cancer Institute, Inc., priority 2015, dated 2020).
“Also recorded” adds a separate entry of the source.

Assays:
RT112 cells = assay: Resistance emergence in RT112 cells under BGJ398 treatment (FIG. 1); format: cell-based, human
From the text: One mechanism of resistance may be through the upregulation of NRG1 due to signaling via ERBB2/ERBB3 and is rapid (a matter of days) and reversible (Wang et al., Oncogene, 2015, 34(17):2167-77). The resistance may also be associated with EMT.

[1] = tested on: gene expression in RT112 cells; assay: RNA-Seq gene expression in RT112 cells; format: cell-based, human; settings: for gene expression (transcriptional programs) by RNAseq: BGJ398 1 μM, THZ1 100 nM, one or seven days
Experimental: (§4) RNA was isolated from untreated RT112 cells and RT112 cells treated with 1 μM BGJ398, 100 nM THZ1, or combination treatment with THZ1 plus BGJ398, and similarly, untreated PC9 cells and PC9 cells treated with 1 μM erlotinib, 100 nM THZ1, or THZ1 plus erlotinib. Both cell lines were harvested at two time-points: following one day or seven days of treatment. Cell number was determined and total RNA was isolated using the RNeasy micro kit (Qiagen). Ambion® ERCC RNA Spike-In Mix (Life technology) was added to total RNA. cDNA libraries were prepared using the NEBNext® Ultra™ RNA Library Prep Kit for Illumina (New England Biolabs) according to the manufacturer's instructions. Library integrity was assessed on an Agilent 2100 Bioanalyzer (Agilent). Sequencing was performed on the Hiseq 2000 platform (Illumina) to a minimum depth of 30 million reads per sample.
(§5) QC-passed reads were aligned to the human reference genome (hg19) using PRADA.^46 Transcript per million (TPM) values were determined using RSEM.^47 TPM values were normalized with the voom transformation.^48 Expression changes for each gene in treated cells compared to untreated controls was determined using the limma package^49 as log 2-transformed fold change and a multiple-testing adjusted p-value. Heatmap visualization was performed using R. Log 2-transformed fold changes were not scaled and were colored on a blue-red scale.
(§6) Differentially expressed genes (defined as log 2-fold change value greater than 1.5 or less than −1.5, and p-value less than 0.01) were input into Ingenuity Pathway Analysis (www.ingenuity.com), to identify a) enriched pathways, 2) upstream regulators, andd 3) downstream effectors. […] We considered an activation z-score of greater than [2] to be activated, and less than [−2] to be inhibited. Gene ontology term (GO-term) enrichment analysis was performed using the Database for Annotation, Visualization and Integrated Discovery (DAVID) v6.7 (david.abcc.ncifcrf.gov/).

[2] = tested on: H3K27Ac enhancer signal in RT112 cells; assay: H3K27Ac ChIP-Seq in RT112 cells; format: cell-based, human; settings: seven days of treatment, vs DMSO
Experimental: RT112 and PC9 cells treated for seven days with vehicle, 1 μM BGJ398 and erlotinib (respectively), 100 nM THZ1, or BGJ398/erlotinib in combination with THZ1. H3K27Ac ChIP-Seq was performed using Abcam antibody (cat # AB4729, lot # GR183922-1) as previously described,^8 with minor modifications (cells were crosslinked for 20 min, Dynal magnetic beads (Sigma) were bound with 10 μg of the indicated antibody).
Illumina sequencing libraries were generated and data was processed as described elsewhere.^50 In brief, libraries were generated for ChIP samples following the Illumina TruSeq™ DNA Sample Preparation v2 kit protocol with minor changes. All ChIP-Seq data sets were aligned using bowtie 1.0.1 to build […] of the human genome with -p 4—best -k 2 -m 2—sam -1 40. Wiggle files for gene tracks were created using Macs 1.4.2 with options -w -S -space=50 to count reads in 50 bp bins.
Regions enriched in H3K27Ac were identified using SICER^51 with corresponding input DNA control, and parameters -t 1 (max 1 read per position), -w 200 (window size 200), -i 150 (fragment size), -g 200 (gap size 200; 1 window), -t 0.74 (interrogable genome fraction), -e 200 (e-value), -p 1e-9 (significance p value cutoff). […]
Density of H3K27Ac ChIP-Seq signal (FIG. 51F) was calculated using bamToGFF (github.com/BradnerLab/pipeline). […]

[3] = tested on: RT112 bladder carcinoma cells (FGFR3-dependent); assay: Colony formation assay in RT112 cells; format: cell-based, human; settings: for colony formation: 4 weeks, crystal violet staining, relative to control; for colony formation, transcription inhibitor alone or in combination with BGJ398: one week, 24-well plate (FIG. 35)
From the text: Media (and drug) were replaced weekly.

[4] = tested on: gene expression in PC9 cells; assay: RNA-Seq gene expression in PC9 cells; settings: erlotinib 1 μM, THZ1 100 nM, one or seven days
Experimental: as §4, §5, §6

[5] = tested on: signaling pathways in PC9 cells; assay: Western blot / immunoblot of signaling pathways in PC9 cells; format: cell-based; settings: 24 hours, erlotinib 1 μM, THZ1 100 nM
Experimental: (§1) Cells were lysed in RIPA buffer (Roche) containing protease inhibitors (Roche) and Phosphatase Inhibitor Cocktails I and II (CalBioChem). Protein concentrations were determined using a Bradford assay (Bio-Rad). Proteins were separated by SDS gel electrophoresis using NuPAGE 4-12% Bis-Tris gels (Life Technologies) in MOPS buffer. Resolved protein was transferred to nitrocellulose membranes, blocked in 10% milk and probed with primary antibodies recognizing EGFR (2232S), p-EGFR (2234S), FGFR3 (4574S), p-FGFR (3471S), HER2/ERBB2 (2165), p-ERBB2 (2243S), STAT1 (9172), p-STAT1 (9167), STAT3 (4904S), p-STAT3 (9145S), AKT (9272S), p-AKT (4060P), ERK (4695S), p-ERK (4370S), FRA1 (5281S), CDK12 (11973) (all from Cell Signaling Technology), CDK7 (sc-723, Santa Cruz), actin (A5441, Sigma-Aldrich) and vinculin (V9131, Sigma-Aldrich) in 5% milk or 3% bovine serum albumin as recommended by the manufacturer. After incubation with the appropriate secondary antibody (Pierce anti-mouse IgG/IgM (31444, Thermo Scientific) and anti-rabbit IgG (31460, Thermo Scientific)), blots were imaged on film.
(§2) Western blots were used to characterize the signaling pathways in selected cell lines. The assays were performed at 24 hours under the following conditions: untreated, treated with 1 μM erlotinib, treated with 100 nM THZ1, or treated with a combination of erlotinib and THZ1, in PC9 and RT112 cells. These doses were also used in the colony formation assays and the RNAseq and ChIPseq experiments. […] However, it could be blocking the activation of downstream STAT3 targets. […] FGFR is known to be a bypass mechanism in PC9, but this was not seen with THZ1 treatment or with the combination treatment. […] This is unexpected, given that THZ1 should block CDK7-mediated RNAPII phosphorylation. This may be due to the dose or the time point assayed.

[6] = tested on: signaling pathways in H23 cells; assay: Western blot / immunoblot of signaling pathways in H23 cells; format: cell-based; settings: 24 hours
Experimental: as §1
(§3) These two lines were both shown in Sharma et al. (Cell, 2010, 141(1):69-80) to employ the STAT3 feedback loop. p-ERK was decreased in the combination treatment arm. […] Therefore, there are some generalizable findings across the four lines.

[7] = tested on: signaling pathways in RT112 cells; assay: Western blot / immunoblot of signaling pathways in RT112 cells; format: cell-based, human; settings: 24 hours
Experimental: as §1
as §2, with “The assays were performed at 24 hours under the following conditions: untreated, treated with 1 μM erlotinib, treated with 100 nM THZ1, or treated with a combination of erlotinib and THZ1, in PC9 and RT112 cells.” left out

[8] = tested on: signaling pathways in A549 cells; assay: Western blot / immunoblot of signaling pathways in A549 cells; format: cell-based; settings: 24 hours
Experimental: as §1, §3

IL-6 = IL-6 in PC9 cell culture supernatants (Luminex cytokine assay, ELISA); format: cell-based; settings: PC9 cells; erlotinib 1 μM, THZ1 100 nM; 24 and 72 hours
Experimental: A Luminex Multiplex Custom Cytokine assay was used to assay cytokines in RT112 and PC9 cell culture supernatants treated with vehicle, 1 μM BGJ398 or erlotinib respectively, 100 nM THZ1, or THZ1 in combination with BGJ398 or erlotinib, at 24 and 72 hours. Cytokines assayed for were: CCL2/MCP-1, CCL5/RANTES, CXLC5, IL-1 alpha and beta, IL-2, IL-4, IL-5, IL-6, IL-8, IL-10, IL-17a, GM-CSF, TNF-alpha, VEGF, INF-gamma. IL-6 was also assayed in cell culture supernatants using the Quantikine IL-6 ELISA kit (D6050, R&D Systems) as per the manufacturer's protocol.

[9] = tested on: EGFR-T790M-L858R; p53-R172H lung tumors; format: in vivo; settings: TLP mice
From the text: Mice (both male and female) bred to contain conditional EGFR-T790M-L858R lox-stop-lox (LSL) allele and the p53-dominant negative R172H LSL allele to a final genotype of EGFR-T790M-L858R^LSL/−; p53-R172H^LSL/− maintained on a mixed background, were induced at 6 weeks of age with Adenovirus-Cre recombinase by intranasal administration^45 to allow for mediated recombination of lox-stop-lox modified mutant-EGFR and p53 alleles. […] Mice were imaged using a 7 Tesla BioSpec (Bruker Biospin) optimized for image requisition of pulmonary parenchyma and vessels in mice. Animals were anesthetized with 2% isoflurane IsoFlo; Abbott) in 100% oxygen via a nose cone. Respiratory and cardiac gating was applied to minimize motion artifacts during imaging. 24 slices (1 mm) were collected. Tumor volume per animal was quantified manually, based on a minimum of eight consecutive axial image sequences, using the 3D Slicer. […] Investigators were not blinded to group allocation. Mice were imaged biweekly by MRI until end-stage disease to determine tumor volume. Mice weights and signs of toxicity were monitored daily during the course of treatment. End-stage disease was reached when animals acquired clinical symptoms secondary to their lung tumors, in accordance with Dana Farber Cancer Institute Animal Care and Use Committee regulations.

[10] = tested on: A549 cells (KRAS-mutant NSCLC); settings: 4 weeks, crystal violet staining
Experimental: 100,000 cells were seeded in 6-well plates, allowed to adhere overnight, and then incubated with media containing vehicle or drug as indicated for 4 weeks. Media (and drug) were replaced weekly. At 4 weeks plates were, fixed with 1% paraformaldehyde, and then stained with 0.1% crystal violet as previously described (medicine.yale.edu/lab/kim/resources/protocols/cell/crystal- violet_stain.aspx) to assess colony formation. Results were quantified using an ImageJ Colony Area PlugIn.^44

CCN1CCN(c2ccc(Nc3cc(N(C)C(=O)Nc4c(Cl)c(OC)cc(OC)c4Cl)ncn3)cc2)CC1 [BGJ398]
resistance emergence (RT112 cells): led to resistance emergence | gene expression (transcriptional programs) by RNAseq [1]: transcriptionally distinct from the parental population; also recorded: up-regulated the expression of genes involved in pro-survival programs | gene expression of the top 200 up-regulated genes with BGJ398 treatment ([1]; log2-normalized FPKM, two-tailed t-test): significant increase in gene expression | H3K27Ac ChIP-Seq signal at enhancers [2]: significant increase in H3K27Ac signal | colony formation [3]: comparable to control

C[C@H](CCC(=O)O)[C@H]1CC[C@H]2[C@@H]3CC[C@@H]4C[C@H](O)CC[C@]4(C)[C@H]3C[C@H](O)[C@]12C [DCA]
colony formation, transcription inhibitor alone or in combination with BGJ398 [3]: modest results, even in combination

C=CC(=O)Nc1cccc(Nc2cc(N3CCCCC3CCO)nc3c(CC)cnn23)c1 (stereo not drawn) [E9]
colony formation, transcription inhibitor alone or in combination with BGJ398 [3]: works as well as THZ1

CN(C)C/C=C/C(=O)Nc1ccc(C(=O)Nc2cccc(Nc3ncc(Cl)c(-c4c[nH]c5ccccc45)n3)c2)cc1 [THZ1]
gene expression (transcriptional programs) by RNAseq [4]: attenuation of these programs | FRA1 protein levels [5]: nor did it restore FRA1 levels | RNAPII phosphorylation [5]: increase in RNAPII phosphorylation | STAT1 phosphorylation [5]: blocked STAT1 phosphorylation | FGFR activation ([5]; alone or combined): not seen; also recorded: blocked | p-STAT3 (STAT3 phosphorylation/activation) ([5]; alone or combined): does not inhibit the feedback activation of STAT3; also recorded: not blocking the activation of p-STAT3; also recorded: did not affect the phosphorylation status of STAT3 | RNAPII phosphorylation [6]: again increased | ERBB2 activation [7]: blocked ERBB2 activation | RNAPII phosphorylation [7]: increase in RNAPII phosphorylation | FRA1 protein levels ([7]; BGJ398 1 μM, THZ1 100 nM): nor did it restore FRA1 levels | STAT1 phosphorylation ([7]; BGJ398 1 μM, THZ1 100 nM): blocked STAT1 phosphorylation | p-STAT3 (STAT3 phosphorylation/activation) ([7]; BGJ398 1 μM, THZ1 100 nM, alone or combined): does not inhibit the feedback activation of STAT3; also recorded: did not affect the phosphorylation status of STAT3; also recorded: not blocking the activation of p-STAT3 | gene expression (transcriptional programs) by RNAseq [1]: attenuation of these programs | RNAPII phosphorylation [8]: again increased | IL-6 levels in cell culture supernatants (IL-6): suppressed the increase in IL-6 levels | colony formation [3]: comparable to control

C=CC(=O)Nc1cccc(Oc2nc(Nc3ccc(N4CCN(C)CC4)cc3OC)ncc2Cl)c1 [WZ4002]
time to end-stage disease [9]: end-stage disease by five weeks | tumor response by MRI at two weeks ([9]; WZ4002 50 mg/kg QD oral gavage): initial response | tumor response by MRI at four weeks ([9]; WZ4002 50 mg/kg QD oral gavage, THZ1 10 mg/kg BID i.p.): rapidly developed resistance and rebounded

C[C@@H](Oc1cc(-c2cnn(C3CCNCC3)c2)cnc1N)c1c(Cl)ccc(F)c1Cl [crizotinib]
colony formation [10]: ineffective
